These results are taken from patent US20040006236A1, “Diaminopropionic acid derivatives” (priority 1999, published 2004).

The target of assay [1] is T1, ICAM-1 binding to immobilized Mac-1 (Homo sapiens, UniProt P05107+P11215).
T1 construct: made in house; host or cells: transfected 293 cells (Mac-1)
The experiment in a line: Mac-1/ICAM-1 screening assay (solid-phase ELISA). As to conditions: read-out: Mac-1/ICAM-1 Protein-Protein Assay IC50. An outline of the steps: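 Competitive solid-phase ELISA: membrane Mac-1 from transfected 293 cells coated at 3 μg/mL in 20 mM Hepes pH 7.2/0.14 M NaCl/1 mM MnCl2; compounds (0.12 nM-20 μM, 1:4 series) plus 5dICAM-Ig (40 μg/mL, added) 2 h at 37° C. Bound ICAM-Ig detected with HRP anti-human IgG Fc, TMB, A450; IC50 reported.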
For orientation: An ELISA detects its analyte on a solid surface through an enzyme-linked reagent.

The test system of assay [2] is cell-surface Mac-1 adhesion to immobilized fibrinogen (HL-60 cells). The experiment in a line: Mac-1/Fibrinogen cell-based screening assay. Also noted: species or system human. As to conditions: Homo sapiens, HL-60, HL-60 cells; read-out: Mac-1/Fgn Cell based Assay IC50. An outline of the steps: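 Wells coated with fibrinogen and blocked with PVP. Labeled HL-60 cells (2×10^6 cells/mL in RPMI/0.05% BSA/0.2 mM MnCl2) preincubated with DMSO-diluted compounds for 10 min at 37° C, then left to adhere 30 min at 37° C/5% CO2. Unbound cells washed off with TBS.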

T1 sequence (P05107 23-769, other chains not shown): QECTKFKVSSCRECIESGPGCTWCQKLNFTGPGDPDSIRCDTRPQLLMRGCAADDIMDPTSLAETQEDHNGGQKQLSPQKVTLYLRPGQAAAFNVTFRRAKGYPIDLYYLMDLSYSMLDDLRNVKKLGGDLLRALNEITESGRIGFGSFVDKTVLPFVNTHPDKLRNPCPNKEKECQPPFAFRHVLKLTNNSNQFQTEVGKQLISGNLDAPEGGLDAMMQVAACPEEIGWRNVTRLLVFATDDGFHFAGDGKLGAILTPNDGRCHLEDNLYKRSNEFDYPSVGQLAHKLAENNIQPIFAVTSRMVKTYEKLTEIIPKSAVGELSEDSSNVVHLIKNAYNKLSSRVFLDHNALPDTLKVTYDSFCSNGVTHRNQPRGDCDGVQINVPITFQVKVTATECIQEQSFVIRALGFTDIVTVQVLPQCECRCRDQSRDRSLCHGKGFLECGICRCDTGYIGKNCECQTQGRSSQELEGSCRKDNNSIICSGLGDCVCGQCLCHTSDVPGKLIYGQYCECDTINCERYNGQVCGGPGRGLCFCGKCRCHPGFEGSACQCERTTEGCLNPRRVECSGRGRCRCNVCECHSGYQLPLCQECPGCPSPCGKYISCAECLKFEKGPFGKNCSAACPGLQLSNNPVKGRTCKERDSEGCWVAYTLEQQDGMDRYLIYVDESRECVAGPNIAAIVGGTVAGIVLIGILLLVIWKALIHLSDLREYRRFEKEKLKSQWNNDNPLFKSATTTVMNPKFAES

Turning to `COc1cscc1C(=O)NC[C@H](NC(=O)c1ccc(C(=O)NCc2cccc(O)c2)cc1Cl)C(=O)O` [Example 257], the IC50 is 23 nM in assay [1] and 87 nM in assay [2].

Turning to `O=C(CSc1ccncc1)NC[C@H](NC(=O)c1ccc(C(=O)NCc2cccc(O)c2)cc1Cl)C(=O)O` [Example 90], the IC50 in assay [1] amounted to 29 nM; in assay [2], 711 nM.

For the compound `O=C(NCc1cccc(O)c1)c1ccc(C(=O)N[C@@H](CNC(=O)c2ccno2)C(=O)O)c(Cl)c1` [Example 256], the IC50 was determined as 14 nM in assay [1] and 24 nM in assay [2].

Take `O=C(NCc1cccc(O)c1)c1ccc(C(=O)N[C@@H](CNC(=O)c2ccc3ccccc3c2)C(=O)O)c(Cl)c1` [Example 179]: the IC50 in assay [1] worked out at 31 nM; in assay [2] it was 314 nM.

For the compound `O=C(NCc1cccc(O)c1)c1ccc(C(=O)N[C@@H](CNC(=O)c2cc3ccccc3s2)C(=O)O)c(Cl)c1` [Example 175], the figures for the IC50 in assay [1] and in assay [2] were 23 nM and 345 nM, respectively.

Take `O=C(NCc1cccc(O)c1)c1ccc(C(=O)N[C@@H](CNC(=O)c2cc(F)cc(F)c2)C(=O)O)c(Cl)c1` [Example 252, N-[2-chloro-4-[[[(3-hydroxyphenyl)methyl]amino]carbonyl]benzoyl]-3-(3,5-difluorobenzoyl)amino-L-alanine]: the IC50 was determined as 6.8 nM in assay [1] and 19 nM in assay [2].

For the compound `O=C(NCc1cccc(O)c1)c1ccc(C(=O)N[C@@H](CNC(=O)c2ccc3ncsc3c2)C(=O)O)c(Cl)c1` [Example 177], the IC50 in assay [1] was determined as 19 nM; in assay [2], 157 nM.

For `O=C(NCc1cccc(O)c1)c1ccc(C(=O)N[C@@H](CNC(=O)C2CCNCC2)C(=O)O)c(Cl)c1` [Example 262], the results for the IC50 in assay [1] and in assay [2] were 15 nM and 49 nM, respectively.

As to `O=C(NCc1cccc(O)c1)c1ccc(C(=O)N[C@@H](CNC(=O)c2csnn2)C(=O)O)c(Cl)c1` [Example 254], the values for the IC50 in assay [1] and in assay [2] were 11 nM and 31 nM, respectively.

As to `Cc1cc(C(=O)NCc2cccc(O)c2)cc(Cl)c1C(=O)N[C@@H](CNC(=O)c1cccs1)C(=O)O` [Example 338, N-[2-chloro-4-[[[(3-hydroxyphenyl)methyl]amino]carbonyl]-6-methylbenzoyl]-3-[(thiophene-2-carbonyl)amino]-L-alanine], the IC50 in assay [1] came to 21 nM; in assay [2], 2.2 nM.

In the case of `O=C(NCc1cccc(O)c1)c1ccc(C(=O)N[C@@H](CNC(=O)c2cccs2)C(=O)O)c(Cl)c1` [Example 303, N-[2-chloro-4-[[[(3-hydroxyphenyl)methyl]amino]carbonyl]benzoyl]-3-(thiophene-2-carbonyl)amino-L-alanine], the IC50 in assay [1] is 6.4 nM; in assay [2] it was 8.7 nM.

As to `O=C(NCc1cccc(O)c1)c1ccc(C(=O)N[C@@H](CNC(=O)[C@@H]2CCCN2)C(=O)O)c(Cl)c1` [Example 196], the IC50 in assay [1] worked out at 16 nM; in assay [2] it was 63 nM.

For `Cc1cc(C(=O)NCc2cccc(O)c2)ccc1C(=O)N[C@@H](CNC(=O)c1cccs1)C(=O)O` [Example 323], the IC50 in assay [2] is 26 nM.

Regarding `O=C(NCc1cccc2[nH]ccc12)c1ccc(C(=O)N[C@@H](CNC(=O)c2ccccc2)C(=O)O)c(Cl)c1` [Example 314, 3-(benzoylamino)-N-[2-chloro-4-[[(1H-indol-4-ylmethyl)amino]carbonyl]benzoyl]-L-alanine], the values for the IC50 in assay [1] and in assay [2] were 40 nM and 162 nM, respectively.

As to `O=C(NCc1cccc(O)c1)c1cc(Cl)c(C(=O)N[C@@H](CNC(=O)c2ccsc2)C(=O)O)c(Cl)c1` [Example 343, N-[2,6-dichloro-4-[[[(3-hydroxyphenyl)methyl]amino]carbonyl]benzoyl]-3-[(thiophene-3-carbonyl)amino]-L-alanine], in assay [2], the IC50 was 1.7 nM.

As to `Cc1cc(C(=O)NCc2cccc(O)c2)cc(Cl)c1C(=O)N[C@@H](CNC(=O)c1cc(F)cc(F)c1)C(=O)O` [Example 340, N-[2-chloro-4-[[[(3-hydroxyphenyl)methyl]amino]carbonyl]-6-methylbenzoyl]-3-[(3,5-difluorobenzoyl)amino]-L-alanine], the IC50 in assay [2] is 6.2 nM.

For the compound `Cc1cc(C(=O)NCc2cccc(O)c2)cc(C)c1C(=O)N[C@@H](CNC(=O)c1ccsc1)C(=O)O` [Example 336, N-[2,6-dimethyl-4-[[[(3-hydroxyphenyl)methyl]amino]carbonyl]benzoyl]-3-(thiophene-3-carbonyl)amino-L-alanine], the IC50 in assay [2] amounted to 5.4 nM.

Take `O=C(NCc1cccc(O)c1)c1ccc(C(=O)N[C@@H](CNC(=O)c2cccc3ccccc23)C(=O)O)c(Cl)c1` [Example 178]: the IC50 in assay [1] was determined as 19 nM; in assay [2] it was 125 nM.

Regarding `O=C(NCc1cccc(O)c1)c1ccc(C(=O)N[C@@H](CNC(=O)c2ccccc2)C(=O)O)c(Cl)c1` [Example 302, 3-benzoylamino-N-[2-chloro-4-[[[(3-hydroxyphenyl)methyl]amino]carbonyl]benzoyl]-L-alanine], the IC50 amounted to 31 nM in assay [1] and 74 nM in assay [2].

As for `NCCCC(=O)NC[C@H](NC(=O)c1ccc(C(=O)NCc2cccc(O)c2)cc1Cl)C(=O)O` [Example 261, N-[2-chloro-4-[[[(3-hydroxyphenyl)methyl]amino]-carbonyl]benzoyl]-3-(4-aminobutanoylamino)-L-alanine], the values for the IC50 in assay [1] and in assay [2] were 11 nM and 46 nM, respectively.

For the compound `Cc1cc(C(=O)NCc2cccc(O)c2)cc(C)c1C(=O)N[C@@H](CNC(=O)c1cccs1)C(=O)O` [Example 330], the IC50 in assay [2] turned out to be 6 nM.

In the case of `O=C(NCc1cccc(O)c1)c1ccc(C(=O)N[C@@H](CNC(=O)c2c3c(nc4ccccc24)CCCC3)C(=O)O)c(Cl)c1` [Example 190], the IC50 came out at 417 nM in assay [1] and 4850 nM in assay [2].
